Values quoted from earlier work in US20230033410A1, “COMPLEX FORMULATION COMPRISING SITAGLIPTIN AND DAPAGLIFLOZIN, AND PREPARATION METHOD THEREFOR” (HANMI PHARM. CO.,LTD., priority 2019, published 2023).
Read-outs that look alike come from different tables or passages of the source.

Details: plasma

Row | Tmax (range in brackets) [h] | Tmax (stated for both drugs) | SMILES
1 | 1 to 2 | about 1 hour | CCOc1ccc(Cc2cc([C@@H]3O[C@H](CO)[C@@H](O)[C@H](O)[C@H]3O)ccc2Cl)cc1 [dapagliflozin, (2S,3R,4R,5S,6R)-2-[4-chloro-3-(4-ethoxybenzyl)phenyl]-6-(hydroxymethyl)tetrahydro-2H-pyran-3,4,5-triol]
2 | 1 to 4 | about 1 hour | N[C@@H](CC(=O)N1CCn2c(nnc2C(F)(F)F)C1)Cc1cc(F)c(F)cc1F [sitagliptin, (R)-3-amino-1-(3-(trifluoromethyl)-5,6-dihydro-[1,2,4]triazolo[4,3-a]pyrazin-7(8H)-yl)-4-(2,4,5-trifluorophenyl)butan-1-one]
